Laboratory results as given in US10111847B2, “Compounds and methods for modulating vascular injury” (The Regents of the University of California, priority 2012, dated 2018).

Legend:
human sv-VSMCs = test: PDGF-BB induced transwell migration of sv-VSMCs (Maresin-1); format: cell-based; conditions: 1-100 nM; PDGF-BB 50 ng/ml; 15 hr
Description: MaR-1. VSMCs were serum starved for 1-2 days, then trypsinized and seeded in 8-μm-pore transwell inserts (Corning Glass Works, Corning, N.Y.) at a concentration of 30,000 cells per well. Cells were allowed to attach for 2 hr, then pretreated with Maresin-1 (1-100 nM) or vehicle (0.1% ethanol) control for 30 min before the addition of PDGF-BB (50 ng/ml; Sigma-Aldrich, St. Louis, Mo., USA) to the lower wells. 7S-Maresin-1 was added to both upper and lower wells for the full duration of chemotaxis experiment (15 hr). The membranes were fixed with methanol and cut out, mounted with DAPI, and migrated cells were counted under fluorescence microscope. Ten images per well were taken randomly under a 10× magnification and number of cells were counted in all the images to calculate mean for a given well.
VSMCs were pre-treated with vehicle or 7S-Maresin-1 for 30 min in a transwell insert before adding […] (50 ng/ml) to the outer chamber. Migrated VSMCs were fixed with methanol, stained with DAPI and counted under a fluorescent microscope.
FIGS. 20A-20D. Representative image of nine independent experiments. (A) Vehicle Control. (B) PDGF-BB, 50 ng/ml. (C) 7S-Maresin-1, 1 nm+PDGF-BB, 50 ng/ml. (D) 7S-Maresin-1, 100 nm+PDGF-BB, 50 ng/ml. (E) Graphical summary of nine independent experiments. P≤0.01, One-way ANOVA with Dunnett's post hoc test. *P<0.05 compared to […] (50 ng/ml). […]

rabbit femoral arteries = test: Rabbit femoral artery balloon injury, acute response at 3 days; format: in vivo, New Zealand White Rabbits
Description: All animal experiments are performed under a protocol approved by University of California San Francisco Animal Care Committee. New Zealand White Rabbits (NZWR, Western Oregon Rabbit Company, Philomath, Oreg.) weighing 3 to 5 kg and maintained on a normal chow diet are used in all experiments. Animals are anesthetized for surgical procedures with intramuscular injection of ketamine (25 mg/kg) and xylazine (5 mg/kg), and maintained with inhalation of isoflurane. The balloon injury model is made as described by Conte et al. “Efficient repopulation of denuded rabbit arteries with autologous genetically modified endothelial cells,” Circulation. 1994; 89:2161-2169. Rabbits undergo bilateral external iliac and femoral artery injury with 2F Fogarty balloon catheter (Applied Medical Resources Corp. Rancho Santa Margarita, Calif.). After balloon injury RvD2 (10 nM, Cayman chemical, Ann Arbor, Mich.) is infused to luminal area of the right femoral artery and control vehicle (normal saline with 0.1% ethanol) is infused to the left femoral artery, and then left undisturbed for 20 minutes. For evaluation of acute effects the rabbits are euthanized at 3 days after injury by intravenous overdose of sodium Nembutal. The femoral arteries are harvested and cryosection is made for immunohistochemistry, and total RNA from treated and control tissue is isolated. For evaluation of subacute responses regarding intimal hyperplasia the rabbits are euthanized at 28 days after injury and the tissue is perfusion-fixed in 10% formalin and processed as described by Conte et al. Arterioscler Thromb Vasc Biol. 2005; 25:2081-2087.
All the immunofluorescent staining is completed on 6-μm-thick frozen sections fixed by ice cold acetone for 10 minutes. Goat anti-mouse IgG conjugated with Alexa Fluor 488 or 568 (1:100, respectively, Invitrogen) is selected as secondary antibody. Anti-Ki67 (1:100, NCL-L-Ki67-MM1, Novocastra Laboratories, Newcastle upon Tyne, UK) is utilized for cell proliferation detection. […] The proportion of Ki67 is calculated by absolute positive cell number divided by DAPI positive nuclei. Leukocyte infiltration index is calculated as number of nuclei in CD45 positive area divided by total number of DAPI positive nuclei.
RvD1. […] Fluorescence was detected with TRITC filter allowing the detection of the DHE emission wavelength of 590-620 nm. The fluorescence lamp gain is standardized for all images and analyses. Fluorescence quantitation is performed using ImageJ analysis software (National Institute of Health, Bethesda, Md.). For VSMC the fluorescence intensity is determined for the DHE-stained control cells (no treatment control) from each experimental group and then individual treated cells from the same group are normalized to the corresponding value. […]

Row | Compound | PDGF-BB induced migration in human sv-VSMCs (human sv-VSMCs) | Cell proliferation (Ki-67 staining index), % inhibition vs control (rabbit femoral arteries; 10 nM intraluminal 20 minutes, 3 days after injury, P<0.01) [%] | leukocyte infiltration (CD45 staining), % inhibition (rabbit femoral arteries; 10 nM intraluminal 20 minutes, 3 days after injury, P<0.05) [%] | TNF-α, MCP-1, and IL-1α expression in treated arteries vs vehicle (qPCR) (rabbit femoral arteries; 10 nM intraluminal, 3 days after injury) | injury-induced ROS production (DHE staining), % inhibition (rabbit femoral arteries; rabbit arteries 3 days after balloon injury, P<0.05) [%]
1 | CC/C=C\C/C=C\C[C@H](O)\C=C/C=C/C=C/[C@@H](O)C/C=C\CCC(=O)O [7S-Maresin-1, 7S,14R-dihydroxydocosa-4Z,8E,10Z,12Z,16Z,19Z-hexaenoic acid] | Dose-Dependently Attenuates | – | – | – | –
2 | CC/C=C\C[C@H](O)[C@H](O)/C=C/C=C/C=C\C=C\[C@@H](O)C/C=C\CCC(=O)O [RvD2, resolvin D2] | – | 51 | 41 | significant reductions | 43
